# Test results from patent US6140335A, “Use of mizolastine for treating inflammatory diseases associated with 5-lipoxygenase” (Sanofi-Synthelabo, priority 1997, dated 2000).
# pIC50: −log10 of the molar value.
# Tests used:
# [1] = target: T1, 5-LO obtained from a preparation of rat leukaemic basophil cells (RBL-1) (Rattus norvegicus, UniProt P12527); test: Inhibition of 5-LO in Rats (RBL-1 preparation); type: biochemical; settings: rat 5-LO (RBL-1); linoleic acid; 5 min preincubation, 8 min at room temperature; absorption at 234 nm; read-out: inhibitory concentration (IC50)
# T1 construct: 5-LO obtained from a preparation of rat leukaemic basophil cells (RBL-1); endogenous in cells; host or cells: RBL-1 (rat leukaemic basophil cells)
# T1 sequence (P12527 1-673): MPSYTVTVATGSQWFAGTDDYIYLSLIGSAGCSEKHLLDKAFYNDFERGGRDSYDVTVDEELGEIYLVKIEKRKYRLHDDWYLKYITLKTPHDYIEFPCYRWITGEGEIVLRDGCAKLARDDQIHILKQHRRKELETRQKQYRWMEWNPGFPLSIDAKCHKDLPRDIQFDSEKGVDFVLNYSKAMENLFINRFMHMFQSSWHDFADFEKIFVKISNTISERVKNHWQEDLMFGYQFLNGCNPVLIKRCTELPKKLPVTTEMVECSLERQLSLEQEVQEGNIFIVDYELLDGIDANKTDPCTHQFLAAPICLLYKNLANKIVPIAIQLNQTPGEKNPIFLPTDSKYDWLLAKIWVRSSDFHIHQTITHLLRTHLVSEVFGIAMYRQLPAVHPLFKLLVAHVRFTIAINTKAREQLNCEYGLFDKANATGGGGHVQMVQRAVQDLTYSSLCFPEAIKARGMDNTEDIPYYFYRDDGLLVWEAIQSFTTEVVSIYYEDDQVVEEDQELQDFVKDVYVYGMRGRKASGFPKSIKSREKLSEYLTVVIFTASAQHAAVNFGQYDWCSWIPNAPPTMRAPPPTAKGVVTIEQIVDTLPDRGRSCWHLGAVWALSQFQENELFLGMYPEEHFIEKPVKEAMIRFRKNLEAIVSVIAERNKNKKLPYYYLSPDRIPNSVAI
# Protocol: The tests were carried out according to the procedure described by R. W. Egan and P. H. Gale in J. Biol. Chem., 260, 1154-1159, 1985, with 5-LO obtained from a preparation of rat leukaemic basophil cells (RBL-1). Mizolastine is incubated with the enzyme for 5 minutes at room temperature and the reaction is initiated by addition of linoleic acid. After incubating for 8 minutes at room temperature, the reaction is stopped by addition of sodium hydroxide and the absorption is read at 234 nm in order to determine the level of 5-HETE.
# [2] = target: T2, 5-LO isolated from commercial HL60 cells (Homo sapiens, UniProt P09917); test: Inhibition of 5-LO in Man (HL60 5-LO); type: biochemical; settings: 5-LO from HL60 cells; arachidonic acid 0.4 μM; 10 min at room temperature; 5-HETE by RIA; read-out: inhibitory concentration (IC50)
# T2 construct: 5-LO isolated from commercial HL60 cells; endogenous in cells; host or cells: HL60
# T2 sequence (P09917 1-674): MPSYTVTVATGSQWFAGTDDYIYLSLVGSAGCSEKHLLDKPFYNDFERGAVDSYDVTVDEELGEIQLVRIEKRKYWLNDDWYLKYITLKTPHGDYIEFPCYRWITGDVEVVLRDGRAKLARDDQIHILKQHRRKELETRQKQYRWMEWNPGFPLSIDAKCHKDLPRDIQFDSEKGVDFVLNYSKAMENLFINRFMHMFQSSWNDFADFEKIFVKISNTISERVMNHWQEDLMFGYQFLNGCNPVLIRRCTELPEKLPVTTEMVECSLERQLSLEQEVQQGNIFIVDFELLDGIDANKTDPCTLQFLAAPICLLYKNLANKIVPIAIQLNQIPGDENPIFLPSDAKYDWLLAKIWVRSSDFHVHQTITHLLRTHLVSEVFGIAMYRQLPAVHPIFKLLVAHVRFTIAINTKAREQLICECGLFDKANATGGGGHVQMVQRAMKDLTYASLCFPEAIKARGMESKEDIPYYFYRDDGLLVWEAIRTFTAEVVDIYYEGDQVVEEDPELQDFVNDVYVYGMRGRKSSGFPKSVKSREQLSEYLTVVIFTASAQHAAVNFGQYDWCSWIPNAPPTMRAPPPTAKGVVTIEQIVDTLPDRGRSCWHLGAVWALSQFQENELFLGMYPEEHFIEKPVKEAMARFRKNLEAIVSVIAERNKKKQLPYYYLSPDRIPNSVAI
# Protocol: Mizolastine was tested on 5-LO isolated from commercial HL60 cells. The mizolastine is incubated for 10 minutes at room temperature in the presence of arachidonic acid (0.4 μM) and 5-LO. The experiment is carried out simultaneously in the presence of nordihydrogualaretic acid as reference product. The amount of 5-HETE formed is determined by RIA (Coffrey et al., J. Biol. Chem., 267-270, 1992).
# [3] = test system: inflammatory oedema of rat limbs induced by the injection of AA; test: In vivo activity in a model of inflammation of rat limbs (oedema by injection of AA); settings: 0.3 mg/kg orally 2 hours before AA injection; after 4 hours; plethysmography
# Protocol: a) inflammation by injection of AA
# Inflammatory oedema of rat limbs induced by the injection of AA is produced and evaluated according to the method of Di Martino et al. (Agents and actions, 21, 303-305, 1987) except that the AA concentration used is 0.3% (v/v).
# The mizolastine is given orally 2 hours before the injection of AA. An AA solution, prepared at the time of use in a buffer solution (0.1 ml; 0.2 M carbonate; pH=11.2), is injected into the subplantar part of a rat's right hind limb.
# The volume of the inflammatory reaction is measured by plethysmography after 1, 2, 3 and 4 hours.
# [4] = test system: rat rectocolitis induced by trinitrobenzenesulphonic acid (TNBS); test: In vivo activity in a model of inflammation of experimental colitis in rats (TNBS); settings: 3 mg/kg orally one hour before and one day after TNBS, after 3 days, significant
# Protocol: Mizolastine was studied in a model of rat rectocolitis induced by trinitrobenzenesulphonic acid (TNBS), according to the method described by Morris et al. (Gastroenterology, 96, 795-803, 1989).
# The mizolastine is given orally (3 mg/kg) one hour before and one day after the instillation of TNBS (40 mg/kg in 50% ethanol) into the distal part of the colon. After 3 days, measurement of the macroscopic index of the damage, of the oedema/hypertrophy (weight of tissues) and of the myeloperoxidase activity, as a measure of the infiltration of the neutrophils, is carried out. Mizolastine imparts a significant reduction in the damage, in the oedema/hypertrophy (weight of tissues) and in the myeloperoxidase activity of 67%, 57% and 66% respectively at 3 mg/kg.
smiles,measurement,setting,value
"CN(c1nccc(O)n1)C1CCN(c2nc3ccccc3n2Cc2ccc(F)cc2)CC1 [mizolastine, 2-[[1-[1-[(4-fluorophenyl)methyl]-1H-benzimidazol-2-yl]-4-piperidyl]methylamino]-4-pyrimidinol]",pIC50,[1],5.34
same,pIC50,[2],4.80
same,"inhibition, relative to the control, of the inflammation induced",[3],55%
same,reduction in the myeloperoxidase activity,[4]; infiltration of neutrophils,66%
same,reduction in the damage (macroscopic index),[4],67%
same,reduction in the oedema/hypertrophy (weight of tissues),[4],57%
